In article PMC4745983 (Frontiers in Cell and Developmental Biology, 2016):
Values after ≈ are worked out from the molar mass of the structure shown. Like-named read-outs stand apart in the source and are kept apart here. Marks after values point to notes of the source that are not given here. No end group written: not given here.

Key:
[1] = system: E. coli CECT101; assay type: cell-based, Escherichia coli; conditions: for Activity against E. coli CECT101 relative to nisin: comparison of MIC values / growth curves (Table 6, Figure 3)
Procedure: (§1) L. lactis strains were cultured in M17 broth supplemented with 0.5% (w/v) glucose (GM17) for genetic manipulation or in minimal expression medium (MEM) for protein expression at 30°C (Rink et al., [2005]). E. coli CECT101 was grown in Luria-Bertani broth aerated by shaking (200 rpm) at 37°C.
(§2) The indicator strains were first cultured until OD (600 nm) reached 0.5. When testing the MIC value, the culture was diluted 1000 times with the appropriate medium. All the tests were performed with a temperature controlled plate reader (Tecan infinite F200, Tecan Group AG) in a 96-well plate (Greiner Bio-one). The peptides were first diluted in gradient with medium and then mixed with diluted indicator strains. The final concentration of the peptides ranged from 0.00625 to 0.8 μM against L. lactis MG1363 and from 0.25 to 32 μM against E. coli CECT101 in 100 μl volume. The plate was incubated at 30°C or 37°C for 18 h depending on the indicator strain being L. lactis or E. coli, respectively. OD (600 nm) was checked every 30 min. For E. coli, 2 min of shaking was performed before every check. When testing the activity of nisin against E. coli in the presence of EDTA, an EDTA solution was prepared and added to a final concentration of 50, 110, or 250 μM. The minimal concentration of peptide causing no observed growth of indicator strains was considered as the MIC value.

[2] = system: L. lactis MG1363; assay type: cell-based, Lactococcus lactis; conditions: for MIC value, L. lactis MG1363: MG1363, 18 h
Procedure: as §1, §2

[3] = system: E. coli ATCC 25922; conditions: indicator strain E. coli ATCC 25922, [2013], cited from earlier work
Description: Table 1 List of selected peptides with anti-Gram-negative bacteria activity. | column: MIC(μM)

[4] = system: E. coli BL21 AI; conditions: indicator strain E. coli BL21 AI, cited from earlier work
Description: To increase the activity of nisin against Gram-negative bacteria, both the inhibition activity and trans-outer membrane activity are important. When the first three rings of nisin are intact, the lipid II binding activity is stable. Retaining the pore formation activity is crucial. By further variation of the linker between the nisin part and the tail or searching for more effic ...

[5] = supernatant of L. lactis NZ9000 expression culture in MEM medium; conditions: Lactococcus lactis, 30°C, up to 3 h induction
[6] = supernatant of L. lactis NZ9000 expression culture in MEM medium, mixed with supernatant containing NisP; conditions: Lactococcus lactis, 30°C, up to 3 h induction; 1 h with NisP

## C=C1NC(=O)[C@H]([C@@H](C)CC)NC(=O)[C@H](NC(=O)/C(=C/C)NC(=O)[C@@H](N)[C@@H](C)CC)CSC[C@@H](C(=O)N[C@H]2C(=O)N3CCC[C@H]3C(=O)NCC(=O)N[C@H](C(=O)N[C@@H](CCCCN)C(=O)N[C@H]3C(=O)NCC(=O)N[C@@H](C)C(=O)N[C@@H](CC(C)C)C(=O)N[C@@H](CCSC)C(=O)NCC(=O)N[C@H](C(=O)N[C@@H](CC(N)=O)C(=O)N[C@@H](CCSC)C(=O)N[C@@H](CCCCN)C(=O)N[C@H](C(=O)N[C@@H](Cc4ccc(O)cc4)C(=O)N[C@H](C(=O)N4CCC[C@H]4C(=O)N[C@@H](CCCNC(=N)N)C(=O)N4CCC[C@H]4C(=O)N[C@@H](CCCNC(=N)N)C(=O)N4CCC[C@H]4C(=O)N4CCC[C@H]4C(=O)N[C@@H](Cc4c[nH]cn4)C(=O)N4CCC[C@H]4C(=O)N[C@@H](CCCNC(=N)N)C(=O)O)[C@@H](C)CC)C(C)C)CS[C@H]3C)CS[C@H]2C)NC(=O)[C@H](CC(C)C)NC1=O [GNT1]
[1]; CECT101, 18 h
  MIC value, E. coli CECT101: >16 µM
[1]
  Activity against E. coli CECT101 relative to nisin: lower net activity than nisin
[2]
  MIC value, L. lactis MG1363: 1 µM (≈ 3.61 µg/mL)

## C=C1NC(=O)[C@H]([C@@H](C)CC)NC(=O)[C@H](NC(=O)/C(=C/C)NC(=O)[C@@H](N)[C@@H](C)CC)CSC[C@@H](C(=O)N[C@H]2C(=O)N3CCC[C@H]3C(=O)NCC(=O)N[C@H](C(=O)N[C@@H](CCCCN)C(=O)N[C@H]3C(=O)NCC(=O)N[C@@H](C)C(=O)N[C@@H](CC(C)C)C(=O)N[C@@H](CCSC)C(=O)NCC(=O)N[C@H](C(=O)N[C@@H](CC(N)=O)C(=O)N[C@@H](CCSC)C(=O)N[C@@H](CCCCN)C(=O)N4CCC[C@H]4C(=O)N4CCC[C@H]4C(=O)N[C@@H](Cc4ccc(O)cc4)C(=O)N[C@@H](CC(C)C)C(=O)N4CCC[C@H]4C(=O)N[C@@H](CCCNC(=N)N)C(=O)N4CCC[C@H]4C(=O)N[C@@H](CCCNC(=N)N)C(=O)N4CCC[C@H]4C(=O)N4CCC[C@H]4C(=O)N[C@@H](CCCNC(=N)N)C(=O)N[C@@H](CCCNC(=N)N)C(=O)N[C@H](C(=O)N[C@@H](Cc4ccc(O)cc4)C(=O)N[C@@H](CC(N)=O)C(=O)N[C@@H](CCCNC(=N)N)C(=O)O)[C@@H](C)CC)CS[C@H]3C)CS[C@H]2C)NC(=O)[C@H](CC(C)C)NC1=O [GNT6]
[1]; CECT101, 18 h
  MIC value, E. coli CECT101: >16 µM
[1]
  Activity against E. coli CECT101 relative to nisin: lower net activity than nisin

## C=C1NC(=O)[C@H]([C@@H](C)CC)NC(=O)[C@H](NC(=O)/C(=C/C)NC(=O)[C@@H](N)[C@@H](C)CC)CSC[C@@H](C(=O)N[C@H]2C(=O)N3CCC[C@H]3C(=O)NCC(=O)N[C@H](C(=O)N[C@@H](CCCCN)C(=O)N[C@H]3C(=O)NCC(=O)N[C@@H](C)C(=O)N[C@@H](CC(C)C)C(=O)N[C@@H](CCSC)C(=O)NCC(=O)N[C@H](C(=O)N[C@@H](CC(N)=O)C(=O)N[C@@H](CCSC)C(=O)N[C@@H](CCCCN)C(=O)N4CCC[C@H]4C(=O)N[C@@H](CCCNC(=N)N)C(=O)N4CCC[C@H]4C(=O)N[C@@H](CCCNC(=N)N)C(=O)N4CCC[C@H]4C(=O)N4CCC[C@H]4C(=O)N[C@@H](CCCNC(=N)N)C(=O)N[C@@H](CCCNC(=N)N)C(=O)N[C@H](C(=O)N[C@@H](Cc4ccc(O)cc4)C(=O)N[C@@H](CC(N)=O)C(=O)N[C@@H](CCCNC(=N)N)C(=O)O)[C@@H](C)CC)CS[C@H]3C)CS[C@H]2C)NC(=O)[C@H](CC(C)C)NC1=O [GNT7]
[1]; CECT101, 18 h
  MIC value, E. coli CECT101: >16 µM
[1]
  Activity against E. coli CECT101 relative to nisin: lower net activity than nisin
[2]
  MIC value, L. lactis MG1363: 0.2 µM (≈ 0.74 µg/mL)
[2]; from MIC values
  Activity against L. lactis relative to GNT16: equal activity as GNT16

## C=C1NC(=O)[C@H]([C@@H](C)CC)NC(=O)[C@H](NC(=O)/C(=C/C)NC(=O)[C@@H](N)[C@@H](C)CC)CSC[C@@H](C(=O)N[C@H]2C(=O)N3CCC[C@H]3C(=O)NCC(=O)N[C@H](C(=O)N[C@@H](CCCCN)C(=O)N[C@H]3C(=O)NCC(=O)N[C@@H](C)C(=O)N[C@@H](CC(C)C)C(=O)N[C@@H](CCSC)C(=O)NCC(=O)N[C@H](C(=O)N[C@@H](CC(N)=O)C(=O)N[C@@H](CCSC)C(=O)N[C@@H](CCCCN)C(=O)N4CCC[C@H]4C(=O)N[C@@H](CCCNC(=N)N)C(=O)N4CCC[C@H]4C(=O)N4CCC[C@H]4C(=O)N[C@@H](Cc4c[nH]cn4)C(=O)N4CCC[C@H]4C(=O)N[C@@H](CCCNC(=N)N)C(=O)N[C@@H](CC(C)C)C(=O)O)CS[C@H]3C)CS[C@H]2C)NC(=O)[C@H](CC(C)C)NC1=O [GNT16-3rings]
[1]; CECT101, 18 h
  MIC value, E. coli CECT101: >32 µM
[1]
  Activity against E. coli CECT101 relative to nisin: lower net activity than nisin
[2]
  MIC value, L. lactis MG1363: 1 µM (≈ 3.09 µg/mL)

## C=C1NC(=O)[C@H]([C@@H](C)CC)NC(=O)[C@H](NC(=O)/C(=C/C)NC(=O)[C@@H](N)[C@@H](C)CC)CSC[C@@H](C(=O)N[C@H]2C(=O)N3CCC[C@H]3C(=O)NCC(=O)N[C@H](C(=O)N[C@@H](CCCCN)C(=O)N[C@H]3C(=O)NCC(=O)N[C@@H](C)C(=O)N[C@@H](CC(C)C)C(=O)N[C@@H](CCSC)C(=O)NCC(=O)N[C@H](C(=O)N[C@@H](CC(N)=O)C(=O)N[C@@H](CCSC)C(=O)N[C@@H](CCCCN)C(=O)N[C@H]4C(=O)N[C@@H](C)C(=O)N[C@H]5C(=O)N[C@@H](CS[C@H]4C)C(=O)N[C@@H](Cc4c[nH]cn4)C(=O)N[C@H](C(=O)N[C@@H](CO)C(=O)NCC(=O)N4CCC[C@H]4C(=O)N[C@@H](CCCNC(=N)N)C(=O)N4CCC[C@H]4C(=O)N4CCC[C@H]4C(=O)N[C@@H](Cc4c[nH]cn4)C(=O)N4CCC[C@H]4C(=O)N[C@@H](CCCNC(=N)N)C(=O)N[C@@H](CC(C)C)C(=O)O)CS[C@H]5C)CS[C@H]3C)CS[C@H]2C)NC(=O)[C@H](CC(C)C)NC1=O [GNT16SG]
[1]
  Activity against E. coli CECT101 relative to nisin: lower net activity than nisin
[1]; from MIC values
  Activity against E. coli relative to GNT16: more than four times lower activity
[2]; from MIC values
  Activity against L. lactis relative to GNT16-3rings (times higher): 2.5 times

## GIGKHVGKALKGLKGLLKGLGEC-NH2 [ADP2]
[3]; ref Iliæ et al.
  MIC: 1^f μM

## GNNRPVYIPQPRPPHPRL [Apidaecin 1b]
[4]; ref Berthold et al., [2013]
  MIC: 0.5^b μM
[4]; ref Berthold et al., [2013], listed as apidaecin 1b
  MIC: 0.5 µM

## Gu-ONNRPVYIPRPRPPHPRL-NH2 [Api 88, derivative of apidaecin 1b with increased positive charges and an amidated C-terminus]
[4]; ref Czihal et al., [2012]
  MIC: 0.2^b μM

## KKLFKKILKYL-NH2 [R-BP100]
[3]; ref Torcato et al.
  MIC: 0.9 ± 0.4^f μM

## Nisin + GKHVGKALKGLKGLLK
[5]
  cleaved bond: Val32-Dha33

## Ring ABC + NGKPRPYSPRPTSHPRPIRV
[6]
  cleaved bond: P-I

## Ring ABC + NGKPRPYSPRPTSHPRPIRV (bicyclic or more) [GNT8, nisin Ring ABC + drosocin tail]
[1]; Luria-Bertani broth, 96-well plate, 100 μl, 37°C, 18 h, OD600 every 30 min, peptide 0.25-32 μM, lowest concentration with no observed growth, repeated at least two times
  MIC value, E. coli CECT101: >16 µM
[1]
  Activity against E. coli CECT101 relative to nisin: lower net activity than nisin

## Ring ABC + NMKPPYLPRPRPPRRIYNR
[6]
  cleaved bond: Y-N and I-Y

## Ring ABC + NMKPRPRPPRRIYNR
[6]
  cleaved bond: N-R and Y-N and I-Y and R-I

## VDKPPYLPRPRPPRRIYNR-NH2 [Oncocin]
[4]; ref Knappe et al., [2010]
  MIC: 1.7^b μM
